In general, half-life refers to how long it takes for the measured level to halve. The logD is the decadic logarithm of the distribution of all forms, ionised or not, between an organic phase and buffer at a given pH.

The results in this text go back to ChEMBL document CHEMBL4837268, “Influence of Linker Attachment Points on the Stability and Neosubstrate Degradation of Cereblon Ligands” (ACS Med Chem Lett, 2021).

A short description of data set [1]: Stability of the compound in acetonitrile/buffer mixture at pH 7.4 assessed as parent compound remaining measured after 24 hrs by HPLC analysis. It is filed as physicochemical. The note with it: read-out: Stabilty.
For data set [2], the target named is T1, Cereblon/Ikaros (Homo sapiens) (UniProt Q96SW2+Q13422). Kind of data set: Protac activity at CRBN/IKZF1 in human MM1.S cells assessed as induction of IKZF1 degradation at 1 uM incubated for 6 hrs relative to control. Format: cell-based.
Data set [3] in a line: Stability in human plasma assessed as half life measured up tp 120 mins by HPLC analysis. Format: ADME, cell-free.
The nature of the next data set: physchem. The note with it: buffer, pH 7.4.
For data set [4], the target named is Protein cereblon/Zinc finger protein Aiolos (Homo sapiens) (UniProt Q96SW2+Q9UKT9). Kind of data set: Protac activity at CRBN/IKZF3 in human MM1.S cells assessed as protein levels at 1 uM measured after 72 hrs by Western blot analysis relative to control. It is filed as cell-based. For orientation: A western blot detects proteins with antibodies after separation by electrophoresis.

Data set [5] concerns the target Protein cereblon/Cyclin-dependent kinase 4 (Homo sapiens) (UniProt P11802+Q96SW2). The data set is described as follows: Protac activity at CRBN/CDK4 in human MM1.S cells assessed as protein levels at 1 uM measured after 72 hrs by Western blot analysis relative to control. It is filed as cell-based.
A short description of data set [6]: Protac activity at CRBN/IKZF3 in human MM1.S cells assessed as induction of IKZF3 degradation at 0.1 to 1 uM measured after 16 hrs by Western blotting analysis. To be noted: dose 0.1-1 µM.
The target in data set [7] is T1, Cereblon/Ikaros (Homo sapiens). The data set is described as follows: Protac activity at CRBN/IKZF1 in human MM1.S cells assessed as protein levels at 1 uM measured after 72 hrs by Western blot analysis relative to control. It is filed as cell-based.
The test system of a further data set is MM1.S. Kind of data set: Cytotoxicity against human MM1.S cells assessed as effect on cell viability at 0.1 to 10 uM incubated for 72 hrs by luminescence based analysis. Format: functional. The note with it: dose 0.1-10 µM.

SMILES strings stand for the structures. Calls of active or inactive are those of the source. The rule behind the calls is not given here.

Chain of Protein cereblon/Zinc finger protein Aiolos (Homo sapiens) (Q96SW2 whole entry, looked up): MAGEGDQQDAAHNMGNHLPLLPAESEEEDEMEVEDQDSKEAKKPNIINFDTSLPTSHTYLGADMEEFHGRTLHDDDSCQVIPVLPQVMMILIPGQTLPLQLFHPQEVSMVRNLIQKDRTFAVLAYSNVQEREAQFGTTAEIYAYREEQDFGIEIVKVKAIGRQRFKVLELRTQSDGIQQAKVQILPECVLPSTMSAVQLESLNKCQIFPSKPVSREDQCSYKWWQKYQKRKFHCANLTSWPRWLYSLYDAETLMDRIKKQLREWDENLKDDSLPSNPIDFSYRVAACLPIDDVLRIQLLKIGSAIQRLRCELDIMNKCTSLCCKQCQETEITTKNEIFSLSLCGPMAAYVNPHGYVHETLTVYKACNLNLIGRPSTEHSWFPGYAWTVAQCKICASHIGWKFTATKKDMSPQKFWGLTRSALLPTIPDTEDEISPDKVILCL
Chain of Protein cereblon/Zinc finger protein Aiolos (Homo sapiens) (Q9UKT9 whole entry, looked up): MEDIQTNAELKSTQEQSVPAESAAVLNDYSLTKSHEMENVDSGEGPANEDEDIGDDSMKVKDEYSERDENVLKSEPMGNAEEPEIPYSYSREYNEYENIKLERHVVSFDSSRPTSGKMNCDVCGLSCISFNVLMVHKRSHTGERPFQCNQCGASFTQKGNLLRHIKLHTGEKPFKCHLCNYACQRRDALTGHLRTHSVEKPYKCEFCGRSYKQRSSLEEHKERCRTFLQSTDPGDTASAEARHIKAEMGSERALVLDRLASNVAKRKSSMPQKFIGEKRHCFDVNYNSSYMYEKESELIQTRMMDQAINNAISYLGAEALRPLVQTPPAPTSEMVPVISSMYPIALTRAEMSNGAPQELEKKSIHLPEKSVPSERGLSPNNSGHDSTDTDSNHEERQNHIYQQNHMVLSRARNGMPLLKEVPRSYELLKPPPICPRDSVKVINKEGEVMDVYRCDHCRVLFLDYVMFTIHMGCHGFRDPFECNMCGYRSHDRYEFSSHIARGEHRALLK
Chain of Protein cereblon/Cyclin-dependent kinase 4 (Homo sapiens) (P11802 2-303 limits assumed): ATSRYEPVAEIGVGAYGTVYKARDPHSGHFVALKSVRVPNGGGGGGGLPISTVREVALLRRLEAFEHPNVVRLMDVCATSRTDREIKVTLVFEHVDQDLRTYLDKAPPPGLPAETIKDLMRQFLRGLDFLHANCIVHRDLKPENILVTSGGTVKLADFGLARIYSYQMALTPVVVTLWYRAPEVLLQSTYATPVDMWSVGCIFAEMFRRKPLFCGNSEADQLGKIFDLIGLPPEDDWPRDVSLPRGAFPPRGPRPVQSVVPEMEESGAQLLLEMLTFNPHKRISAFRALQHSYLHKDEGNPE
Chain of Protein cereblon/Cyclin-dependent kinase 4 (Homo sapiens) (Q96SW2 whole entry partner): as the sequence (Q96SW2 whole entry, looked up) above
Description for physchem: Lipophilicity, logD of the compound at pH 7.4 by HPLC analysis

For `O=C1c2cccc(OCCOCCOCCOCc3ccccc3)c2C(=O)N1C1CCCCC1`, in data set [1], the remaining at 24 h turned out to be 90%.

For `O=C1CCC(N2C(=O)c3cccc(NC(=O)COCCOCCOCc4ccccc4)c3C2=O)C(=O)N1` (centres undefined), in [2], the Activity worked out at 14%. The half-life in [3] was determined as 1.97 h. In addition, the logD in the data set “physchem” was 2.6. Besides, the remaining at 24 h in [1] came to 15%.

As for `O=C1CCC(N2Cc3cc(NCCOCCOCCOCc4ccccc4)ccc3C2=O)C(=O)N1` (centres undefined), in data set [2], the Activity was determined as 0%. The same molecule had a logD in the data set “physchem” of 2.1. For the same molecule, the remaining at 24 h in data set [1] came to 79%.

Take `O=C(COCCOCCOCc1ccccc1)NCc1ccc2c(c1)C(=O)N(C1CCC(=O)NC1=O)C2=O` (centres undefined): the Activity in [2] stood at 0%. The logD in the data set “physchem” amounted to 1.8. Further, the remaining at 24 h in [1] stood at 16%.

With `O=C1CCC(N2Cc3c(OCCOCCOCCOCc4ccccc4)cccc3C2=O)C(=O)N1` (centres undefined), in [2], the Activity came to 22%. For the same molecule, the remaining at 24 h in [1] turned out to be 78%.

As for `CC(=O)c1c(C)c2cnc(Nc3ccc(N4CCN(CC(=O)NCCOCCOCCOCC(=O)Nc5cccc6c5CN(C5CCC(=O)NC5=O)C6=O)CC4)cn3)nc2n(C2CCCC2)c1=O` (centres undefined), the Activity was greater than 95% in [4], 56% in [5] and greater than 95% in data set [7]. For the same molecule, in data set [6], the result was inactive.

Regarding `CC(=O)c1c(C)c2cnc(Nc3ccc(N4CCN(CC(=O)NCCOCCOCCOCCNC(=O)COc5cccc6c5C(=O)N(C5CCC(=O)NC5=O)C6=O)CC4)cn3)nc2n(C2CCCC2)c1=O` (centres undefined), the results for the Activity in data set [4], in [5] and in data set [7] were greater than 95%, 66% and greater than 95%, respectively. Besides, in data set [6], the outcome was inactive.

With `O=C1CCC(N2C(=O)c3ccc(C#CCOCCOCCOCc4ccccc4)cc3C2=O)C(=O)N1` (centres undefined), the log distribution coefficient (logD) in “physchem” came to 3.3. The remaining at 24 h in data set [1] is 1%.

Turning to `O=C1NCCCC1N1C(=O)c2cccc(OCCOCCOCCOCc3ccccc3)c2C1=O` (centres undefined), in data set [1], the remaining at 24 h was 99%.

Consider `O=C(COc1cccc2c1C(=O)N(C1CCC(=O)NC1=O)C2=O)NCCOCCOCCOCc1ccccc1` (centres undefined), for which the Activity in [2] turned out to be 0%. Further, the log distribution coefficient (logD) in “physchem” stood at 2. Further, the remaining at 24 h in [1] was 17%.

As for `O=C1CCC(N2C(=O)c3cccc(C(=O)NCCOCCOCCOCc4ccccc4)c3C2=O)C(=O)N1` (centres undefined), the logD in “physchem” was 1.9. Besides, the remaining at 24 h in data set [1] stood at 3%.

For the molecule `O=C(CNc1cccc2c1C(=O)N(C1CCC(=O)NC1=O)C2=O)NCCOCCOCCOCc1ccccc1` (centres undefined), the Activity in data set [2] is 29%. Further, in [3], the half-life was greater than 2 h. The logD in the data set “physchem” was determined as 2.1. Besides, in data set [1], the remaining at 24 h amounted to 68%.

As to `O=C1CCC(N2C(=O)c3ccc(OCCOCCOCCOCc4ccccc4)cc3C2=O)C(=O)N1` (centres undefined), the Activity in [2] came to 0%. Also, in data set [3], the half-life is greater than 2 h. For the same molecule, the log distribution coefficient (logD) in “physchem” was 2.9. Moreover, the remaining at 24 h in [1] is 30%.

Turning to `O=C(COCCOCCOCc1ccccc1)NCc1cccc2c1C(=O)N(C1CCC(=O)NC1=O)C2=O` (centres undefined), the Activity in [2] came out at 73%. Besides, the half-life in data set [3] is greater than 2 h. The logD in “physchem” amounted to 2. For the same molecule, in [1], the remaining at 24 h came out at 21%.

Molecule `O=C1CCC(N2C(=O)c3cccc(C#CCOCCOCCOCc4ccccc4)c3C2=O)C(=O)N1` (centres undefined) registered a logD in “physchem” of 3.2. The remaining at 24 h in data set [1] is 6%.

On to `O=C1CCC(N2Cc3cc(OCCOCCOCCOCc4ccccc4)ccc3C2=O)C(=O)N1` (centres undefined), for which, in [2], the Activity turned out to be 16%. The half-life in data set [3] was greater than 2 h. In “physchem”, this molecule showed a pH-dependent lipophilicity (logD) of 2.2. Moreover, the remaining at 24 h in [1] was determined as 73%.

Consider `CC(=O)c1c(C)c2cnc(Nc3ccc(N4CCN(CC(=O)NCCOCCOCCOCC(=O)NCc5cccc6c5C(=O)N(C5CCC(=O)NC5=O)C6=O)CC4)cn3)nc2n(C2CCCC2)c1=O` (centres undefined), for which the Activity in [4] was greater than 95%; in data set [5], 68%; in data set [7] it was greater than 95%. Further, the result (in the data set on MM1.S; in data set [6]) was Active.

Turning to `O=C1CCC(N2Cc3c(NCCOCCOCCOCc4ccccc4)cccc3C2=O)C(=O)N1` (centres undefined), in data set [2], the Activity worked out at 5%. The half-life in [3] was greater than 2 h. Also, the log distribution coefficient (logD) in the data set “physchem” turned out to be 2.4. Moreover, the remaining at 24 h in data set [1] was 74%.

In the case of `O=C1CCC(N2C(=O)c3ccc(NCCOCCOCCOCc4ccccc4)cc3C2=O)C(=O)N1` (centres undefined), the Activity in data set [2] amounted to 19%. The molecule further gave a logD in the data set “physchem” of 2.6. Besides, the remaining at 24 h in data set [1] stood at 70%.

`O=C1CCC(N2C(=O)c3ccc(C(=O)NCCOCCOCCOCc4ccccc4)cc3C2=O)C(=O)N1` (centres undefined) displayed a logD in “physchem” of 1.9. Besides, the remaining at 24 h in data set [1] was 1%.

As for `O=C(COc1ccc2c(c1)C(=O)N(C1CCC(=O)NC1=O)C2=O)NCCOCCOCCOCc1ccccc1` (centres undefined), the Activity in data set [2] was found to be 0%. The same molecule came in with a logD in the data set “physchem” of 2. Moreover, the remaining at 24 h in [1] came out at 15%.

Consider `O=C1CCC(N2C(=O)c3cccc(NCCOCCOCCOCc4ccccc4)c3C2=O)C(=O)N1` (centres undefined), for which the Activity in [2] was found to be 64%. Further, the half-life in data set [3] was greater than 2 h. In the data set “physchem”, this molecule showed a logD of 3.1. In addition, the remaining at 24 h in [1] amounted to 80%.

As to `O=C1CCC(N2C(=O)c3cccc(OCCOCCOCCOCc4ccccc4)c3C2=O)C(=O)N1` (centres undefined), in data set [2], the Activity stood at 5%. Further, the logD in the data set “physchem” is 2.6. Further, in data set [1], the remaining at 24 h came to 46%.

With `O=C1CCC(N2C(=O)c3ccc(NC(=O)COCCOCCOCc4ccccc4)cc3C2=O)C(=O)N1` (centres undefined), in data set [2], the Activity is 1%. Further, the logD in “physchem” stood at 2.3. For the same molecule, in [1], the remaining at 24 h came out at 11%.

Consider `O=C1CCC(N2C(=O)c3ccccc3C2=O)C(=O)N1CCOCCOCCOCc1ccccc1` (centres undefined), for which the remaining at 24 h in [1] turned out to be 19%.

As for `O=C(CNc1ccc2c(c1)C(=O)N(C1CCC(=O)NC1=O)C2=O)NCCOCCOCCOCc1ccccc1` (centres undefined), the Activity in [2] came to 6%. The same molecule displayed a logD in “physchem” of 1.8. Moreover, in [1], the remaining at 24 h amounted to 56%.

With `CC(=O)c1c(C)c2cnc(Nc3ccc(N4CCN(CC(=O)NCCOCCOCCOCCNc5cccc6c5C(=O)N(C5CCC(=O)NC5=O)C6=O)CC4)cn3)nc2n(C2CCCC2)c1=O` (centres undefined), the figures for the Activity in data set [4], in [5] and in data set [7] were 2%, 26% and 2%, respectively. The outcome in the data set with MM1.S was Active.

On to `O=C1CCC(N2Cc3cc(NC(=O)COCCOCCOCc4ccccc4)ccc3C2=O)C(=O)N1` (centres undefined), for which, in data set [2], the Activity amounted to 6%. The logD in the data set “physchem” was determined as 1.8. The remaining at 24 h in data set [1] turned out to be 73%.

On to `O=C1CCC(N2Cc3c(NC(=O)COCCOCCOCc4ccccc4)cccc3C2=O)C(=O)N1` (centres undefined), for which the Activity in [2] is 0%. The half-life in data set [3] was determined as 1.45 h. Also, in “physchem”, the logD is 1.6. Further, the remaining at 24 h in [1] worked out at 79%.
